Laboratory results as given in patent publication US20050009030A1, “Histone deacetylase: novel molecular target of neurotoxicity” (priority 2002, published 2005).

Tested on: rat cerebellar granule cells
Test: Excitotoxicity in rat cerebellar granule cells induced by NMDA/serine or kainate, measured by MTT test
Assay type: cell-based
Conditions: excitotoxicity induced by 100 μM NMDA and 10 μM serine, or by 50 μM kainate; 30 to 40% toxicity by MTT tests
Description: For this example, rat cerebellar granule cells were placed in culture, according to techniques known to those skilled in the art. Excitotoxicity was induced in these cells by two types of treatment: firstly, by the joint administration of 100 μM NMDA (N-Methyl-D-aspartic acid) and 10 μM serine, and secondly by administration of 50 μM kainate. Under the experimental conditions adopted, 30 to 40% toxicity was observed and measured using MTT tests, known to those skilled in the art.

Compound: CC(/C=C/C(=O)NO)=C\[C@@H](C)C(=O)c1ccc(N(C)C)cc1 [trichostatin A]
- Inhibition of excitotoxicity: Inhibition of excitotoxicity can be demonstrated
